Laboratory results from PubChem BioAssay (NCI).
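Each compound was tested at five concentrations against cells in 96-well plates for 48 hours. GI50 is the concentration that inhibits growth by half. TGI: total growth inhibition.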

What was measured:
Test in all cases: growth of human tumour cells (NCI), 48 h
[1] = tested on: UO-31 renal
[2] = tested on: NCI-H522 lung
[3] = tested on: SR leukemia
[4] = tested on: OVCAR-4 ovarian
[5] = tested on: MDA-MB-435
[6] = tested on: LOX IMVI melanoma
[7] = tested on: BT-549 breast
[8] = tested on: A498 renal
[9] = tested on: HL-60(TB) leukemia
[10] = tested on: HS 578T breast
[11] = tested on: HT29 colon
[12] = tested on: SN12C renal
[13] = tested on: RPMI-8226 leukemia
[14] = tested on: NCI/ADR-RES ovarian
[15] = tested on: MALME-3M melanoma
[16] = tested on: OVCAR-5 ovarian
[17] = tested on: SF-295 CNS
[18] = tested on: SF-539 CNS
[19] = tested on: HOP-62 NSCLC
[20] = tested on: UACC-257 melanoma
[21] = tested on: PC-3 prostate
[22] = tested on: MOLT-4 leukemia
[23] = tested on: SNB-75 CNS
[24] = tested on: SK-MEL-2 melanoma
[25] = tested on: HCT-116 colon
[26] = tested on: SK-MEL-28 melanoma
[27] = tested on: TK-10 renal
[28] = tested on: ACHN renal
[29] = tested on: DU-145 prostate
[30] = tested on: CCRF-CEM leukemia
[31] = tested on: A549 NSCLC
[32] = tested on: MDA-MB-231 breast
[33] = tested on: MCF7 breast
[34] = tested on: OVCAR-8 ovarian
[35] = tested on: UACC-62 melanoma
[36] = tested on: NCI-H23 lung
[37] = tested on: U251 CNS
[38] = tested on: SF-268 CNS
[39] = tested on: IGROV1 ovarian
[40] = tested on: T-47D breast
[41] = tested on: CAKI-1 renal
[42] = tested on: HCC-2998 colon
[43] = tested on: NCI-H460 lung
[44] = tested on: K-562 leukemia
[45] = tested on: HOP-92 NSCLC
[46] = tested on: COLO 205 colon
[47] = tested on: SK-MEL-5 melanoma
[48] = tested on: SK-OV-3 ovarian
[49] = tested on: NCI-H226 lung
[50] = tested on: HCT-15 colon
[51] = tested on: RXF 393 renal
[52] = tested on: SW-620 colon
[53] = tested on: SNB-19 CNS
[54] = tested on: M14 melanoma
[55] = tested on: KM12 colon
[56] = tested on: OVCAR-3 ovarian
[57] = tested on: MDA-N
[58] = tested on: 786-0 renal

O=C(Nc1cccc(-n2cc(-c3ccncc3)c(-c3ccc(O)c(Cl)c3)n2)c1)c1cccc(C(F)(F)F)c1
GI50 [1]: 4.29 µM
TGI [1]: > 100 µM
GI50 [2]: 2.49 µM
TGI [2]: > 100 µM
GI50 [3]: 1.6 µM
TGI [3]: 8.1 µM
GI50 [4]: 5.33 µM
TGI [4]: > 100 µM
GI50 [5]: 3.57 µM
TGI [5]: > 100 µM
GI50 [6]: 2.35 µM
TGI [6]: > 100 µM
GI50 [7]: 3.34 µM
TGI [7]: > 100 µM
GI50 [8]: 3.44 µM
TGI [8]: > 100 µM
GI50 [9]: 2.68 µM
TGI [9]: 6.76 µM
GI50 [10]: 2.26 µM
TGI [10]: > 100 µM
GI50 [11]: 5.18 µM
TGI [11]: > 100 µM
GI50 [12]: 6.44 µM
TGI [12]: > 100 µM
GI50 [13]: 2.04 µM
TGI [13]: 10.6 µM
GI50 [14]: 4.09 µM
TGI [14]: > 100 µM
GI50 [15]: 5.59 µM
TGI [15]: > 100 µM
GI50 [16]: 23.7 µM
TGI [16]: > 100 µM
GI50 [17]: 2.98 µM
TGI [17]: > 100 µM
GI50 [18]: 3.27 µM
TGI [18]: > 100 µM
GI50 [19]: 8.86 µM
TGI [19]: > 100 µM
GI50 [20]: 8.15 µM
TGI [20]: > 100 µM
GI50 [21]: 3.62 µM
TGI [21]: > 100 µM
GI50 [22]: 2.96 µM
TGI [22]: > 100 µM
GI50 [23]: 2.07 µM
TGI [23]: > 100 µM
GI50 [24]: 4.54 µM
TGI [24]: 38.1 µM
GI50 [25]: 3.24 µM
TGI [25]: > 100 µM
GI50 [26]: 4.63 µM
TGI [26]: > 100 µM
GI50 [27]: 7.18 µM
TGI [27]: > 100 µM
GI50 [28]: 3.71 µM
TGI [28]: > 100 µM
GI50 [29]: 6.52 µM
TGI [29]: > 100 µM
GI50 [30]: 1.88 µM
TGI [30]: > 100 µM
GI50 [31]: 2.5 µM
TGI [31]: > 100 µM
GI50 [32]: 1.43 µM
TGI [32]: 5.3 µM
GI50 [33]: 2.97 µM
TGI [33]: > 100 µM
GI50 [34]: 3.89 µM
TGI [34]: > 100 µM
GI50 [35]: 6.52 µM
TGI [35]: > 100 µM
GI50 [36]: 4.38 µM
TGI [36]: > 100 µM
GI50 [37]: 2.14 µM
TGI [37]: > 100 µM
GI50 [38]: 7.11 µM
TGI [38]: > 100 µM
GI50 [39]: 9.88 µM
TGI [39]: > 100 µM
GI50 [40]: 3 µM
TGI [40]: > 100 µM
GI50 [41]: 2.83 µM
TGI [41]: > 100 µM
GI50 [42]: 4.37 µM
TGI [42]: > 100 µM
GI50 [43]: 3.42 µM
TGI [43]: > 100 µM
GI50 [44]: 2.41 µM
TGI [44]: > 100 µM
GI50 [45]: 0.434 µM
TGI [45]: 4.11 µM
GI50 [46]: 13 µM
TGI [46]: 72.9 µM
GI50 [47]: 2.38 µM
TGI [47]: 16.2 µM
GI50 [48]: 99.1 µM
TGI [48]: > 100 µM
GI50 [49]: 7.17 µM
TGI [49]: > 100 µM
GI50 [50]: 1.98 µM
TGI [50]: > 100 µM
GI50 [51]: 1.1 µM
TGI [51]: 5.64 µM
GI50 [52]: 5.81 µM
TGI [52]: > 100 µM
GI50 [53]: 9.36 µM
TGI [53]: > 100 µM
GI50 [54]: 2.72 µM
TGI [54]: > 100 µM
GI50 [55]: 2.67 µM
TGI [55]: 64.3 µM

COc1ccc(CCN2CCc3c(C)c(C#N)c4nc5ccccc5n4c32)cc1OC
TGI [1]: > 100 µM
TGI [2]: 57 µM
TGI [56]: > 100 µM
TGI [4]: > 100 µM
TGI [5]: 45 µM
TGI [6]: > 100 µM
TGI [7]: 84.2 µM
TGI [8]: > 100 µM
TGI [9]: > 100 µM
TGI [10]: 60.6 µM
TGI [11]: > 100 µM
TGI [12]: > 100 µM
TGI [14]: > 100 µM
TGI [15]: 99.8 µM
TGI [16]: > 100 µM
TGI [17]: > 100 µM
TGI [18]: > 100 µM
TGI [19]: > 100 µM
TGI [20]: > 100 µM
TGI [21]: > 100 µM
TGI [23]: 88.7 µM
TGI [24]: 44.7 µM
TGI [25]: > 100 µM
TGI [26]: > 100 µM
TGI [27]: > 100 µM
TGI [28]: > 100 µM
TGI [29]: > 100 µM
TGI [30]: > 100 µM
TGI [31]: > 100 µM
TGI [32]: 86.1 µM
TGI [33]: > 100 µM
TGI [34]: > 100 µM
TGI [35]: 95.3 µM
TGI [36]: > 100 µM
TGI [37]: > 100 µM
TGI [38]: > 100 µM
TGI [39]: > 100 µM
TGI [41]: > 100 µM
TGI [42]: > 100 µM
TGI [43]: > 100 µM
TGI [44]: 55.7 µM
TGI [57]: 43.1 µM
TGI [45]: 90.6 µM
TGI [46]: 89.8 µM
TGI [47]: 52 µM
TGI [48]: > 100 µM
TGI [49]: 93.7 µM
TGI [50]: > 100 µM
TGI [51]: > 100 µM
TGI [52]: 97.3 µM
TGI [53]: > 100 µM
TGI [54]: > 100 µM
TGI [58]: > 100 µM
